Values quoted from earlier work, collected in paper PMC8253220, “Molecular design, synthesis and in vitro biological evaluation of thienopyrimidine–hydroxamic acids as chimeric kinase HDAC inhibitors: a challenging approach to combat cancer” (Journal of Enzyme Inhibition and Medicinal Chemistry, 2021).
Where two headings read alike, the source gives them in different places.

Legend:
HER2 = conditions: Figure 2; cited from earlier work
VEGFR2 = conditions: cited from earlier work
EGFR = EGFR (Homo sapiens, UniProt P00533); conditions: cited from earlier work
HDAC = conditions: Figure 2; cited from earlier work
HDAC6 = biological target: T1, HDAC6 (Homo sapiens, UniProt Q9UBN7); conditions: Figure 2; cited from earlier work
T1 construct: purchased BPS Bioscience 50006
T1 sequence (Q9UBN7 1-1215): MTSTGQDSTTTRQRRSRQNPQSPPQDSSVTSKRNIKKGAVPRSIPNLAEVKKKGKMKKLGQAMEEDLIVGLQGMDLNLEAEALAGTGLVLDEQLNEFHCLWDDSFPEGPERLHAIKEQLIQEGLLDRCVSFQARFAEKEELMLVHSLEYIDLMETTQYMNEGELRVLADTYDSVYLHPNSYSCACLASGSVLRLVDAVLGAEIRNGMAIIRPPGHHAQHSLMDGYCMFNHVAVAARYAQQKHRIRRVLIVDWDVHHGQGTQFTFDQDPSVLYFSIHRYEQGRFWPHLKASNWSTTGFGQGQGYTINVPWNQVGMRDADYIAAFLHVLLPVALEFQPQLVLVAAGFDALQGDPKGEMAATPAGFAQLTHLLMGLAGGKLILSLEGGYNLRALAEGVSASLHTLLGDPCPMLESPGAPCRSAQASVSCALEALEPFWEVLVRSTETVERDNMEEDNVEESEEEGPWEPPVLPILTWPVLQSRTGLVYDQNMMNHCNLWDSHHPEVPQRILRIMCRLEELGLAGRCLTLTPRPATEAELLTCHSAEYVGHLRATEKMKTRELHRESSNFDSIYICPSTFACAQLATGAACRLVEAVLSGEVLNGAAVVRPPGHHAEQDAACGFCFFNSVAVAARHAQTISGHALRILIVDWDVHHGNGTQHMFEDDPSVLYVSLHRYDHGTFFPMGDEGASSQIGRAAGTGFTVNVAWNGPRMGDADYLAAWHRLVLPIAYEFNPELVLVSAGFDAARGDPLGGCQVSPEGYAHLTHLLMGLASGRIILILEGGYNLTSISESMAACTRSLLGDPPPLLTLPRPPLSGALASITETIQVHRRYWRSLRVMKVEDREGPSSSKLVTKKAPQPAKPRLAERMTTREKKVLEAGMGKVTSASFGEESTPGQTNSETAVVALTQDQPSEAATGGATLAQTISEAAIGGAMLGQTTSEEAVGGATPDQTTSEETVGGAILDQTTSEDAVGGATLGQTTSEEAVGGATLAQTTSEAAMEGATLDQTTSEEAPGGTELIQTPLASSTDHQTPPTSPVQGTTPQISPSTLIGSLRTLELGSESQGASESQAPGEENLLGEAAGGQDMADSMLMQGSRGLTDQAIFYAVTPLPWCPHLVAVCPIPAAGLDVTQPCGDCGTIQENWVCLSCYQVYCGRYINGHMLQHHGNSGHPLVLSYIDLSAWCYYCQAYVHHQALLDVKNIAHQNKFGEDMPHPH

Sequence of EGFR (P00533 25-1210): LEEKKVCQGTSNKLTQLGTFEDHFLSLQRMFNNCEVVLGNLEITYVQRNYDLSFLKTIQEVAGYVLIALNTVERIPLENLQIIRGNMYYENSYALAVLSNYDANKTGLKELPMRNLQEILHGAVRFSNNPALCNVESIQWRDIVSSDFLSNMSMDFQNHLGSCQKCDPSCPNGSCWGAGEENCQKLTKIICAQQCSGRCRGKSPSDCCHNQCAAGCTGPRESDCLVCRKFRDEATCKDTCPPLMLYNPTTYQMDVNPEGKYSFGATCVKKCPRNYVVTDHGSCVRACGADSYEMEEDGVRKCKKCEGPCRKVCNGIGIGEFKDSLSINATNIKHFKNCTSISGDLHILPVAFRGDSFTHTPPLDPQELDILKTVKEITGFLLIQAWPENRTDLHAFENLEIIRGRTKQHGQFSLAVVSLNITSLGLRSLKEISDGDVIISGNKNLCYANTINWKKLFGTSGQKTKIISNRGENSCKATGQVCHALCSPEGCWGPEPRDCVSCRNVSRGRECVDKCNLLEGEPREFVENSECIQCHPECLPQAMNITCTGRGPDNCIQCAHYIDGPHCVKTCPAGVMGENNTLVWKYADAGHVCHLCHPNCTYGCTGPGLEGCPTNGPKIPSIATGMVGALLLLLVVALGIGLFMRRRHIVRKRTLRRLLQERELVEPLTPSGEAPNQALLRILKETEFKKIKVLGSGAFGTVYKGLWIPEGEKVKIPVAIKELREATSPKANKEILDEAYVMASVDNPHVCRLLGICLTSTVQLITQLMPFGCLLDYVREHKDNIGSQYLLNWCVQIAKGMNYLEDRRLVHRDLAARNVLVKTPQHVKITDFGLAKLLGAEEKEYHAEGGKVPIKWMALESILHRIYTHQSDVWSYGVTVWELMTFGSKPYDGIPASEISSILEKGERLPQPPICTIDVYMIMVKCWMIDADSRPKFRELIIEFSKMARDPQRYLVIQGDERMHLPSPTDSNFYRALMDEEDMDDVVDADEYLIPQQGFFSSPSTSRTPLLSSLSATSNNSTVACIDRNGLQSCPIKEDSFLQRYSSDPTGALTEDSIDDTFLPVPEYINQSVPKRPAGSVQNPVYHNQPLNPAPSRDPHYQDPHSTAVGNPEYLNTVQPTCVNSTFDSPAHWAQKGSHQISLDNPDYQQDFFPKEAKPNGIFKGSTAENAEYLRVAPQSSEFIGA

For `C#Cc1cccc(Nc2ncnc3cc(OC)c(OCCCCCCC(=O)NO)cc23)c1` [CUDC-101, 7-(4-(3-ethynylphenylamino)-7-methoxyquinazolin-6-yloxy)-N-hydroxyheptanamide], the IC50 (HER2) is listed as 15 nM.
In the case of `O=C(Nc1cccc(Br)c1)Nc1ccc(Oc2ncnc3sc4c(c23)CCCCC4)cc1Cl` [Compound E], the IC50 (VEGFR2; Figure 3, read-out: VEGFR2 IC50) is given as 15 nM and the IC50 (EGFR; Figure 3) is given as 1260 nM.
For `COc1cc2ncnc(Nc3ccc(Br)cc3)c2cc1OCCCCCCC(=O)NO` [compound B], the IC50 (HDAC) is listed as 2.2 nM and the IC50 (VEGFR2; Figure 2, read-out: VEGFR2 IC50) is listed as 74 nM.
In the case of `O=C(CCCCCCn1cc(-c2ccc3ncnc(Nc4ccc(Br)cc4F)c3c2)nn1)NO` [compound C], the IC50 (HDAC) is listed as 3.2 nM, the IC50 (EGFR; Figure 2) is listed as 4.4 nM and the IC50 (HDAC6) is listed as 6 nM.
For Vandetanib, the IC50 (VEGFR2; read-out: IC50 VEGFR-2) is given as 40 nM.
